In patent US4226610A, “Herbicidal compounds, preparation thereof and herbicides containing the same” (Meiji Selka Kaisha, Ltd., priority 1978, dated 1980) one finds Reproduction-inhibiting effect, Killing index and solubility data, which are given here for three compounds.

Values after ≈ are worked out from the molar mass of the structure shown.

The subject of one data set is water hyacinth. In words: Experiment 4 foliar application to water hyacinths with surfactants. It counts as in vivo, Eichhornia crassipes Solms. More on the design: key to Killing index: killing index: 0 = no effect, 5 = death. The text has this:
(§1) The detail of the assessment made in the following Experiments of the invention was as follows:
Four months after treatment, evaluation was made for inhibition of reproduction expressed in terms of symbols ranging from (-) to (+++) where (-) means no reproduction, namely complete suppression of reproduction, (±) remarkable suppression of reproduction; (+) considerable suppression of reproduction; (++) medium supprestion of reproduction; and (+++) no suppression of reproduction.
Water was placed in 20 cm.×30 cm. plastic vessels and a liquid fertilizer was added thereto.
Two water hyacinths were floated in each vessel. 0.1 or 0.2% of each of surfactants listed in Table 6 were added to 0.1 or 0.2% aqueous solutions of DL-AMPB choline. Each solution was sprayed by foliar application in an amount of 100 liter per 10 are. The killing index (0, no effect; 5, death) after 21 days and 3 months and the reproduction-inhibiting effect (-, no reproduction; +++, maximum reproduction) after 3 months were determined.

The next data set concerns chestnut. Nature of the data set: Experiment 2 foliar application in Japanese cypress afforested land. It counts as in vivo, Castanea crenata Sieb et Zucc. The note with it: 0.063%; after 30 days. The protocol:
as §1
The compounds of the invention and other compounds listed in Table 4. were diluted to prescribed concentrations and sprayed to shrubs by foliar application in a Japanese cypress afforested land in an amount of 150 liter per 10 are.
After 30 days and 3 months, the killing index (0, no effect; 5, death) was determined.
The heights of plants were 50-70 cm. for Japanese cypress, about 50 cm. for chestnut, 50-90 cm. for miyakozasa, about 100 cm. for eulalia and 70-100 cm. for kumaichigo, respectively.

A further data set can be described thus: Solubility (Table 1). The note with it: ethanol, organic solvent or mixture.
The mark [1] stands for this setting: 0.1%, octylphenyl polyoxyethanol 0.2%, 3 months.

On to `CP(=O)(O)CCC(N)C(=O)O` (racemic) [DL-AMPB choline], for which the Reproduction-inhibiting effect result in the data set with water hyacinth (0.1%, no surfactant, 3 months) is “+++”; in the data set with water hyacinth (0.1%, octylphenyl polyoxyethanol 0.1%, 3 months), “+”; in the data set with water hyacinth (setting [1]), “±”; in the data set with water hyacinth (0.1%, polyoxyethylene alkylaryl ether 0.1%, 3 months), “++”; in the data set on water hyacinth (0.1%, polyoxyethylene alkylaryl ether 0.2%, 3 months), “±”; in the data set with water hyacinth (0.1%, polyoxyethylene dodecyl ether 0.1%, 3 months), “++”. Moreover, the Reproduction-inhibiting effect entry was “±” with water hyacinth (0.1%, polyoxyethylene dodecyl ether 0.2%, 3 months); “++” in the data set with water hyacinth (0.1%, polyoxyethylene sorbitan monooleate 0.1%, 3 months); “±” with water hyacinth (0.1%, polyoxyethylene sorbitan monooleate 0.2%, 3 months); “++” in the data set on water hyacinth (0.1%, polyoxyethylene sorbitan monostearate 0.1%, 3 months); “±” in the data set with water hyacinth (0.1%, polyoxyethylene sorbitan monostearate 0.2%, 3 months); “±” in the data set with water hyacinth (0.2%, no surfactant, 3 months). For the same compound, the Reproduction-inhibiting effect result is reported as “-” with water hyacinth (0.2%, octylphenyl polyoxyethanol 0.1%, 3 months); “-” with water hyacinth (0.2%, octylphenyl polyoxyethanol 0.2%, 3 months); “-” in the data set with water hyacinth (0.2%, polyoxyethylene alkylaryl ether 0.1%, 3 months); “-” in the data set with water hyacinth (0.2%, polyoxyethylene alkylaryl ether 0.2%, 3 months); “-” in the data set on water hyacinth (0.2%, polyoxyethylene dodecyl ether 0.1%, 3 months); “-” with water hyacinth (0.2%, polyoxyethylene dodecyl ether 0.2%, 3 months). The Reproduction-inhibiting effect result with water hyacinth (0.2%, polyoxyethylene sorbitan monooleate 0.1%, 3 months) is given as “-”; in the data set with water hyacinth (0.2%, polyoxyethylene sorbitan monooleate 0.2%, 3 months), “-”; in the data set with water hyacinth (0.2%, polyoxyethylene sorbitan monostearate 0.1%, 3 months), “-”; with water hyacinth (0.2%, polyoxyethylene sorbitan monostearate 0.2%, 3 months) it was “-”. For the same compound, the Killing index with water hyacinth (setting [1]) turned out to be 4.5; in the data set on water hyacinth (0.1%, polyoxyethylene alkylaryl ether 0.1%, 21 days), 2.5; in the data set on water hyacinth (0.1%, polyoxyethylene dodecyl ether 0.1%, 21 days) it was 2.5; with water hyacinth (0.1%, polyoxyethylene sorbitan monooleate 0.1%, 21 days) it was 2.5; with water hyacinth (0.1%, polyoxyethylene sorbitan monostearate 0.1%, 21 days) it was 2.5; in the data set with water hyacinth (0.2%, no surfactant, 3 months), 4.5. Also, the Killing index in the data set on water hyacinth (0.2%, polyoxyethylene alkylaryl ether 0.1%, 21 days) is 4.5; in the data set on water hyacinth (0.2%, polyoxyethylene dodecyl ether 0.1%, 21 days) it was 4.5; with water hyacinth (0.2%, polyoxyethylene sorbitan monooleate 0.1%, 21 days) it was 4.5; in the data set on water hyacinth (0.2%, polyoxyethylene sorbitan monostearate 0.1%, 21 days), 4.5.
For `CP(=O)(O)CC[C@H](N)C(=O)O` [L-AMPB choline, L-2-Amino-4-methylphosphino-butanoic acid choline], the Killing index with chestnut is 3.5.
As for `C[C@H](NC(=O)[C@H](C)NC(=O)[C@@H](N)CCP(C)(=O)O)C(=O)O` [SF-1293 choline, (L-2-Amino-4-methylphosphinobutyryl)-L-alanyl-L-alanine choline], the solubility in “Solubility (Table 1)” came to 310 mg/mL (≈ 959 mM).
